Measurements taken from ChEMBL document CHEMBL3991601, “The target landscape of clinical kinase drugs” (Science, 2017).
Calls of active or inactive are those of the source.

Tests used:
[1] = molecular target: Cyclin-dependent kinase 5 (Homo sapiens, UniProt Q00535)
[2] = molecular target: T1, Dual specificity mitogen-activated protein kinase kinase 3 (Homo sapiens, UniProt P46734)
T1 sequence (P46734 whole entry): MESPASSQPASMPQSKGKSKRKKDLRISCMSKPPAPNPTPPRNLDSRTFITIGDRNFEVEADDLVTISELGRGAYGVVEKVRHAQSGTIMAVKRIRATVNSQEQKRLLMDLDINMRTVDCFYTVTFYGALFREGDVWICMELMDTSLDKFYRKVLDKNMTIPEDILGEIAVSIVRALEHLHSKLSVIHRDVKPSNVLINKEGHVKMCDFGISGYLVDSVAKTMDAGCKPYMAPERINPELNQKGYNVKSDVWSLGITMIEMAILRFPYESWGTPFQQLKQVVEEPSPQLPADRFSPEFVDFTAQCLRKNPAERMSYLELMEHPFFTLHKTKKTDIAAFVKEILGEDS

[3] = molecular target: Mitogen-activated protein kinase kinase kinase 1 (Homo sapiens, UniProt Q13233)
Mitogen-activated protein kinase kinase kinase 1, sequence (Q13233 whole entry): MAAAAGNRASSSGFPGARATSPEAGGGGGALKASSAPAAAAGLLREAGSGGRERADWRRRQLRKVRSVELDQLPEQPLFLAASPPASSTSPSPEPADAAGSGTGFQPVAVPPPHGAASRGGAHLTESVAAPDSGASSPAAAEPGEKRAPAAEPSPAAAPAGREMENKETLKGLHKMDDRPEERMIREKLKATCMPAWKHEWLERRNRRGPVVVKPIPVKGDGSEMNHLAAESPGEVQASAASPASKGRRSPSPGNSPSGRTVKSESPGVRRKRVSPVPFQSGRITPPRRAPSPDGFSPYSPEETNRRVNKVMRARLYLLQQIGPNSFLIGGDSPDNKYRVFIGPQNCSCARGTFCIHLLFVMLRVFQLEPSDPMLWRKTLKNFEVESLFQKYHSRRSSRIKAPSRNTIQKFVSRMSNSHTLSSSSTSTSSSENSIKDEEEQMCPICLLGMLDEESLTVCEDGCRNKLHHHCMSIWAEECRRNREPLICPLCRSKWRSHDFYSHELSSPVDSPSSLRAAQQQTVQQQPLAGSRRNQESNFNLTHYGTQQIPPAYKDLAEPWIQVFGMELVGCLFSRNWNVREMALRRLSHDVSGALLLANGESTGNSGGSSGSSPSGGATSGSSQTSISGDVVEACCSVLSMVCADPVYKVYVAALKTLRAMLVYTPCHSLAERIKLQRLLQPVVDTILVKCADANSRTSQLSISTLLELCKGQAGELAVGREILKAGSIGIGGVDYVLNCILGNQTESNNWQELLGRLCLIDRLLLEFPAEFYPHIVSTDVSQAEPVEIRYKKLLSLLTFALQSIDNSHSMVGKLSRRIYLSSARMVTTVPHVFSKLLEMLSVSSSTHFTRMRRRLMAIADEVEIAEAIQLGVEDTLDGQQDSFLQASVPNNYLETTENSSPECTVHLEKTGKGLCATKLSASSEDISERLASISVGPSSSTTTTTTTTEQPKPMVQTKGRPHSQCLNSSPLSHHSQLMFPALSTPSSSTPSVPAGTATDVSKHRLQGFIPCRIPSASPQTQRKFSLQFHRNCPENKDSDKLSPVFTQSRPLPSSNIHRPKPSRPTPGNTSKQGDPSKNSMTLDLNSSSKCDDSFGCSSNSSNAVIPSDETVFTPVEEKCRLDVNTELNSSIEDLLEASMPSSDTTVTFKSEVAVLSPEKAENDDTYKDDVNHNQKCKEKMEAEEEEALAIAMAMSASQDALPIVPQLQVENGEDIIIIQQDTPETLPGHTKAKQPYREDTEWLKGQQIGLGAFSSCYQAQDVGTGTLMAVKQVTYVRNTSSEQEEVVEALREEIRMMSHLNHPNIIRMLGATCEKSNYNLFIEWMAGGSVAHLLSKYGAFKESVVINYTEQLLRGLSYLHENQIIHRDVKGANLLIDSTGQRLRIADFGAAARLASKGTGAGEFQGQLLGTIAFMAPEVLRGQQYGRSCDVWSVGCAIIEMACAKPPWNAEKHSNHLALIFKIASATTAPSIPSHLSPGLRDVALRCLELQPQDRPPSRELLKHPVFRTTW

[4] = molecular target: Mitogen-activated protein kinase 1 (Homo sapiens, UniProt P28482)
Mitogen-activated protein kinase 1, sequence (P28482 whole entry): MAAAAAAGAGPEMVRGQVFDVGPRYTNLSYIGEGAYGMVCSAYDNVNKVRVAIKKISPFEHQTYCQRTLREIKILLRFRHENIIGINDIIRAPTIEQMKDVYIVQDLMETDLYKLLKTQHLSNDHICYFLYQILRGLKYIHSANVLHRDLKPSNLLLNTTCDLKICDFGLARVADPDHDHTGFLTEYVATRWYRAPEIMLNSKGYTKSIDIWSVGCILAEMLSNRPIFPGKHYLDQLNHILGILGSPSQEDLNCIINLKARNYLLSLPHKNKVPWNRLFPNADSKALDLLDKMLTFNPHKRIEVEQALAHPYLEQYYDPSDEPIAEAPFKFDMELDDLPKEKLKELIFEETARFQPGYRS

[5] = molecular target: T2, Serine/threonine-protein kinase Nek1 (Homo sapiens, UniProt Q96PY6)
T2 sequence (Q96PY6 whole entry): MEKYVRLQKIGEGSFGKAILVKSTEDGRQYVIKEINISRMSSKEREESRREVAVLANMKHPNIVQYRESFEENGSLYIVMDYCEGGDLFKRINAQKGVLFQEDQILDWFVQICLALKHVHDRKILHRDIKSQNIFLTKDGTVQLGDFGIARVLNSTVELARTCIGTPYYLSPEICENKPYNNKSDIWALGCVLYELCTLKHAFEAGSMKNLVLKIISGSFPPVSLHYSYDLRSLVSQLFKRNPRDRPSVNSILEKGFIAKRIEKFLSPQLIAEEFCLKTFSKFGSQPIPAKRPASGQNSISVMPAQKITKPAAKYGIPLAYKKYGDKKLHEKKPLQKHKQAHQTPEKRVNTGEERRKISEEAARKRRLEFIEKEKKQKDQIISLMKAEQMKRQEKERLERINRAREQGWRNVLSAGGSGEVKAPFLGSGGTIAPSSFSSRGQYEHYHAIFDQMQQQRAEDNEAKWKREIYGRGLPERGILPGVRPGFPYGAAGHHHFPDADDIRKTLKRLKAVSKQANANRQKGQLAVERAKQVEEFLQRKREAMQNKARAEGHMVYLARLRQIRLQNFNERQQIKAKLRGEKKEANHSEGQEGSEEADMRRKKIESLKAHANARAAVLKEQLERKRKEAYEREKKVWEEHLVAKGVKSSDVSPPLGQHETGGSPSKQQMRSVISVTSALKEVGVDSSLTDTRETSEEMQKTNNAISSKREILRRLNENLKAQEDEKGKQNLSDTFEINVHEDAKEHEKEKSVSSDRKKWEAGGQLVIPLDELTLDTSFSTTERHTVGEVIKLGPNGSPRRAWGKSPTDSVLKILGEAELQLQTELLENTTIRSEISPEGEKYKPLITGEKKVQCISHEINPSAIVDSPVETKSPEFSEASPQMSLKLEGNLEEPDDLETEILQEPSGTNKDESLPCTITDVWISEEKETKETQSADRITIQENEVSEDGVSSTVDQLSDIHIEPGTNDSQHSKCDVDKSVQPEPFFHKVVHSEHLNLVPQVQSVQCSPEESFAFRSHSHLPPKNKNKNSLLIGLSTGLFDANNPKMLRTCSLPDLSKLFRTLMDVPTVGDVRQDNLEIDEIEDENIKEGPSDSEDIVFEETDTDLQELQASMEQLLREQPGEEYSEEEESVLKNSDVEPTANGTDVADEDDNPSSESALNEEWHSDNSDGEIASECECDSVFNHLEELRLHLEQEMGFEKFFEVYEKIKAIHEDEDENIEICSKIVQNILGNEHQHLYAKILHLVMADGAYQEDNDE

[6] = molecular target: T3, Membrane-associated tyrosine- and threonine-specific cdc2-inhibitory kinase (Homo sapiens, UniProt Q99640)
T3 sequence (Q99640 whole entry): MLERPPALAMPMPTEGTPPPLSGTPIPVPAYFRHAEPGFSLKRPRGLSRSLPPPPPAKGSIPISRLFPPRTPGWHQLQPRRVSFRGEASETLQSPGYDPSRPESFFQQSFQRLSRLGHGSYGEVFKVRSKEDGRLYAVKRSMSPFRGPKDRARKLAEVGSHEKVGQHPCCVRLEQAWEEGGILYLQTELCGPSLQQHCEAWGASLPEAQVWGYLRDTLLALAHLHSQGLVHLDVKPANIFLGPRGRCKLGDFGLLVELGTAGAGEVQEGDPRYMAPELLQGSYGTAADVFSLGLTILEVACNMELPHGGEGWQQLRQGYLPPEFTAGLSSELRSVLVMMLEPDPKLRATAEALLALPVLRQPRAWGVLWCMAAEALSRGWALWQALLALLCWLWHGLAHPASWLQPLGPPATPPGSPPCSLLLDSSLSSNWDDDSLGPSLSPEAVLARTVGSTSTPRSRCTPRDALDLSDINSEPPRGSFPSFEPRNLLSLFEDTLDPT

[7] = molecular target: Ras-related protein Rab-6A (Homo sapiens, UniProt P20340)
Ras-related protein Rab-6A, sequence (P20340 whole entry): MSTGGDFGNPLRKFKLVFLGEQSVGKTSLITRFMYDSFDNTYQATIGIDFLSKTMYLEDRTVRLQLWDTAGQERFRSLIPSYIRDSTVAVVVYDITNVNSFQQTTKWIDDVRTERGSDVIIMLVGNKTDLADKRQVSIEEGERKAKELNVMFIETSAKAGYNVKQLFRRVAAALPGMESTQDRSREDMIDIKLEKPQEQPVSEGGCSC

[8] = molecular target: T4, STE20-related kinase adapter protein alpha (Homo sapiens, UniProt Q7RTN6)
T4 sequence (Q7RTN6 whole entry): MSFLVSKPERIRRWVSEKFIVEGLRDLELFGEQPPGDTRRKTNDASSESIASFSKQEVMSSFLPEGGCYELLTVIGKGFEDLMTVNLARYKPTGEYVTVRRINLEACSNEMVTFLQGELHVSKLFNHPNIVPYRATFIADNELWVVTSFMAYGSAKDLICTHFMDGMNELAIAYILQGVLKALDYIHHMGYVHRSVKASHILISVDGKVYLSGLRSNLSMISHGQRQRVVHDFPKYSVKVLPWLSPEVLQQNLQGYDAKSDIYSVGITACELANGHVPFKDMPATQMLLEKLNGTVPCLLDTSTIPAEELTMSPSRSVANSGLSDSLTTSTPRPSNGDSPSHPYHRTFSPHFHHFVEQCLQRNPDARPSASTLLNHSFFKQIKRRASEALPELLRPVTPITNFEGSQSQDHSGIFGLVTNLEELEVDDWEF

Measured: Kd
Also: in the data inactive means no Kd found up to 30 µM.

Cyclin-dependent kinase 5, sequence (Q00535 whole entry): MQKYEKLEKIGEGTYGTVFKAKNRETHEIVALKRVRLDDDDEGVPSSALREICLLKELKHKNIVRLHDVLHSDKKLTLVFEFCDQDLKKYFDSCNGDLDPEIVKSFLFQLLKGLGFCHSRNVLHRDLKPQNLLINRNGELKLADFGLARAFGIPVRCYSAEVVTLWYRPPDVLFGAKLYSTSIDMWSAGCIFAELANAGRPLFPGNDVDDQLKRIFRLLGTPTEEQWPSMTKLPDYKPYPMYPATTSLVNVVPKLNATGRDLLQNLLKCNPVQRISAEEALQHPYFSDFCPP

COc1ccc2c(OCc3nnc4ccc(-c5ccccc5)nn34)ccnc2c1 [AMG-208]
inactive: [1] > 30 µM | [2] > 30 µM | [3] > 30 µM | [4] > 30 µM | [5] > 30 µM | [6] > 30 µM | [7] > 30 µM | [8] > 30 µM

COc1ccc(-c2ccc3ncc4c(c3c2)n(-c2ccc(N3CCNCC3)c(C(F)(F)F)c2)c(=O)n4C)cn1 [BGT-226 FREE BASE]
inactive: [1] > 30 µM | [2] > 30 µM | [3] > 30 µM | [4] > 30 µM | [5] > 30 µM | [6] > 30 µM | [7] > 30 µM | [8] > 30 µM
